Data reported in patent publication US20060258729A1, “Antibacterial pyrazole carboxylic acid hydrazides” (priority 2002, published 2006).

What was measured:
[1] = test system: Bacillus subtilis strain BD54; assay: Inhibition of bacterial growth (MIC), Bs; type: cell-based; settings: 16 to 18 hours, 37° C.
Description: (§1) Each compound was assayed against a panel of a strain of Bacillus subtilis, of strains of antibiotic-resistant and sensitive Enterococcus and Staphylococcus species, and of a strain of the Gram-negative bacterium Escherichia coli. Compounds were dissolved in DMSO at 100× the desired highest concentration and added to one well of a 96-well microassay plate. Two-fold serial drug dilutions were made across the plate in DMSO to yield 11 concentrations (usually 80-0.078 μg/mL) plus an untreated control. Drugs were then transferred to fresh plates using 1.5 μL per well. Log phase cultures were diluted to yield a concentration of 1×10^5 colony forming units/mL in either LB or BHI medium and transferred to the plates containing drug for a final volume of 150 μL. Each well, including the DMSO controls, contained a final concentration of 1% DMSO. Plates were incubated with shaking at 37° C. for 16 to 18 hours. Cell growth was determined by measuring optical density (570 nm, 1 cm path length) in a microplate reader. MIC (minimum inhibitory concentration) is equivalent to the lowest concentration at which growth is not observed. The bacterial strains and MIC determinations have been well characterized and are described elsewhere (Tarantino et al., Antimicrob. Agents Chemother., 43: 1982-1987 (1999); Daly et al., Antimicrob. Agents Chemother., 44: 2217-2221 (2000)).

[2] = test system: Staphylococcus aureus strain IP 8; assay: Inhibition of bacterial growth (MIC), Sa; type: cell-based; settings: 16 to 18 hours, 37° C.
Description: as §1

S. aureus Smith strain = assay: Inhibition of bacterial growth (MIC), Sm; type: cell-based, Staphylococcus aureus; settings: 16 to 18 hours, 37° C.
Description: as §1

[3] = test system: methicillin-resistant S. aureus strain 1094; assay: Inhibition of bacterial growth (MIC), MRSA; type: cell-based, Staphylococcus aureus; settings: 16 to 18 hours, 37° C.
Description: as §1

[4] = test system: Enterococcus faecalis strain 29212; assay: Inhibition of bacterial growth (MIC), Efcl; type: cell-based; settings: 16 to 18 hours, 37° C.
Description: as §1

[5] = test system: E. faecium clinical isolate; assay: Inhibition of bacterial growth (MIC), Efcm; type: cell-based; settings: 16 to 18 hours, 37° C.
Description: as §1

[6] = test system: vancomycin-resistant Enterococcus strain B42762; assay: Inhibition of bacterial growth (MIC), VRE; type: cell-based; settings: 16 to 18 hours, 37° C.
Description: as §1

[7] = test system: Escherichia coli strain J53; assay: Inhibition of bacterial growth (MIC), Ec; type: cell-based; settings: 16 to 18 hours, 37° C.
Description: as §1

B. subtilis pol IIIC = target: T1, B. subtilis pol IIIC (Bacillus subtilis, UniProt P13267); assay: DNA polymerase assay, B. subtilis pol IIIC; type: biochemical; settings: 80 μg/mL (190-260 μM) final concentration; all four dNTPs
T1 construct: made in house
T1 sequence (P13267 whole entry): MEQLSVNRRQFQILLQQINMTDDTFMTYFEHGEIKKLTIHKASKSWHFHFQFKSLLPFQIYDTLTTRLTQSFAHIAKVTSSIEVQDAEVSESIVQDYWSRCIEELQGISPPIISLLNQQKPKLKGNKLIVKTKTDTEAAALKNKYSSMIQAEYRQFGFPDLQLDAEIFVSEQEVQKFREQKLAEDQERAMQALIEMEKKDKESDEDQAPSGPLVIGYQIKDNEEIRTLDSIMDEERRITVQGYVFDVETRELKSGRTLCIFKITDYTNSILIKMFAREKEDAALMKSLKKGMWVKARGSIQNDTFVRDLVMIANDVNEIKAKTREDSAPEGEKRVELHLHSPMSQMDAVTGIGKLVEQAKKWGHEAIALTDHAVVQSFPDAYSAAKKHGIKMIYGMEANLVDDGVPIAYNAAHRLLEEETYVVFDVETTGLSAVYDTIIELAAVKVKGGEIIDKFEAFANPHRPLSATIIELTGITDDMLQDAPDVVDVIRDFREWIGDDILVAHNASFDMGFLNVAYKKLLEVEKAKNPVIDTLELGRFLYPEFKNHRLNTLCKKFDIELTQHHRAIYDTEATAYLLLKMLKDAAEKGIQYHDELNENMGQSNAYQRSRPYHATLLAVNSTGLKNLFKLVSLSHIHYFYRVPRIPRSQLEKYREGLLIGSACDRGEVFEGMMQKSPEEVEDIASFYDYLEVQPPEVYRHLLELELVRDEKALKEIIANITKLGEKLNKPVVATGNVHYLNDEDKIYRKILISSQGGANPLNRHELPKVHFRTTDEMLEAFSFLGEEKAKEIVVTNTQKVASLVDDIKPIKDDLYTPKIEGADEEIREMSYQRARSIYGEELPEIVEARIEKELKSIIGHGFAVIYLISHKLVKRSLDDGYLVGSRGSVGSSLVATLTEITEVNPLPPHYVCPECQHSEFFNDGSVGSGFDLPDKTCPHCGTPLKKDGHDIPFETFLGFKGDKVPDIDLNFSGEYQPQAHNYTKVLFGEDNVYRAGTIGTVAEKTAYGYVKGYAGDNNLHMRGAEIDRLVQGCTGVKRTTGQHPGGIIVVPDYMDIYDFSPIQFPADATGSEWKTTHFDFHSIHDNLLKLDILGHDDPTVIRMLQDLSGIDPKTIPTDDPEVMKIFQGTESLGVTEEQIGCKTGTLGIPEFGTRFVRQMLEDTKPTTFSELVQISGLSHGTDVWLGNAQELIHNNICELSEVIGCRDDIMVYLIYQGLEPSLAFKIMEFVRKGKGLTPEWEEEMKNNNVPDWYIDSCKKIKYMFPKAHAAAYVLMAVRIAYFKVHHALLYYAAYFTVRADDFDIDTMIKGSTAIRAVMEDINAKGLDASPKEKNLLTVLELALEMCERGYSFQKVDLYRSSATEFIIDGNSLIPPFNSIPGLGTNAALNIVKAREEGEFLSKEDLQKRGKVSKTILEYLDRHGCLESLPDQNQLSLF
Description: Recombinant, purified pol IIIC and pol IIIE from Bacillus subtilis were obtained using known methods (Hammond et al., Gene 98: 29-36 (1991), regarding pol IIIC; Barnes et al., J. Bacteriol. 184, 3834-3838 (2002), regarding pol IIIE). Recombinant, purified pol IIIE from Escherichia coli was obtained from a commercial source (Enzyco, Denver, Colo.). The enzyme assays were performed in 96-well plate format using the same assay mix for all three enzymes. […] Dilutions of compounds were added to the plate in 1% DMSO (1 μL/well). Assays were initiated by the addition of 0.025 to 0.06 units of enzyme (1 unit is the amount required to incorporate 250 pmoles of [^3H] dTMP in a standard assay), incubated for 10 min at 30° C. and terminated by the addition of 200 μL of cold 10% trichloroacetic acid, 10 mM sodium pyrophosphate. Precipitated labeled DNA was collected on glass fiber filter plates that had been pre-wet with ice cold 1 M HCl, 100 mM sodium pyrophosphate. The plates were washed with the HCl solution followed by ice cold 90% ethanol and then dried and counted in a liquid scintillation counter. […] In addition, percent inhibition values are calculated as the percent reduction in the activity of a DMSO (diluent) control.

B. subtilis pol IIIE = target: T2, B. subtilis pol IIIE (Bacillus subtilis, UniProt O34623); assay: DNA polymerase assay, B. subtilis pol IIIE; type: biochemical; settings: 80 μg/mL (190-260 μM) final concentration; all four dNTPs
T2 construct: made in house
T2 sequence (O34623 whole entry): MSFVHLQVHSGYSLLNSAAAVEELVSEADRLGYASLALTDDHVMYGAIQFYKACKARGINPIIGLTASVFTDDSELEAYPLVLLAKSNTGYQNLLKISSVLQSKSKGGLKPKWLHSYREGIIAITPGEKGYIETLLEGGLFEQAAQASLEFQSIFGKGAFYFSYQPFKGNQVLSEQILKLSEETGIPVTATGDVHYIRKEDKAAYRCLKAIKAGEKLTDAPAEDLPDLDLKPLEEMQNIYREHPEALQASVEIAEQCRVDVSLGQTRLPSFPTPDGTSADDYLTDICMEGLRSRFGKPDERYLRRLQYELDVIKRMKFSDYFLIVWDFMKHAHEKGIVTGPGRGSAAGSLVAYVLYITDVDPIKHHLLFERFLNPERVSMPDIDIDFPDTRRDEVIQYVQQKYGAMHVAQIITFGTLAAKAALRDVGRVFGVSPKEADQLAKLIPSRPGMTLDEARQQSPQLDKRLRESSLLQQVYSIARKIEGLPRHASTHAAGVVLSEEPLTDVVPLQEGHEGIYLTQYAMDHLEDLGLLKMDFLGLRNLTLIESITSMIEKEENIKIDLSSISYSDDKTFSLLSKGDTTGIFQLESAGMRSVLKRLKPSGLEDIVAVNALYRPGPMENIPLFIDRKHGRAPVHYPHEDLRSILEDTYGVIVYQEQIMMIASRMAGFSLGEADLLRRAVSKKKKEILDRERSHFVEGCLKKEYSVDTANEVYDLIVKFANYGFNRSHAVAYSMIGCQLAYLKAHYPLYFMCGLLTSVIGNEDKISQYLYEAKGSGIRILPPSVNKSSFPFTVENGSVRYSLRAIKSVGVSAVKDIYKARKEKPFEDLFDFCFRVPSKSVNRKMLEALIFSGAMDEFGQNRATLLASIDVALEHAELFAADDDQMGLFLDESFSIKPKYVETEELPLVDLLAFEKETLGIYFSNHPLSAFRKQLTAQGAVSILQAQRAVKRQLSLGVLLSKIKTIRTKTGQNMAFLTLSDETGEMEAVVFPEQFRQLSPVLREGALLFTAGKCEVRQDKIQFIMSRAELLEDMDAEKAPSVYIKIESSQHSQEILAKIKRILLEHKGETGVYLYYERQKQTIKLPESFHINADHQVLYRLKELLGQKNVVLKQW
Description: (§2) Recombinant, purified pol IIIC and pol IIIE from Bacillus subtilis were obtained using known methods (Hammond et al., Gene 98: 29-36 (1991), regarding pol IIIC; Barnes et al., J. Bacteriol. 184, 3834-3838 (2002), regarding pol IIIE). Recombinant, purified pol IIIE from Escherichia coli was obtained from a commercial source (Enzyco, Denver, Colo.). The enzyme assays were performed in 96-well plate format using the same assay mix for all three enzymes. Each 25 μL assay contained 30 mM Tris, pH 7.5, 10 mM magnesium acetate, 4 mM dithiothreitol, 20% glycerol, with 10 μM dATP, dCTP, dGTP and dTTP (3H-labelled at 1.44 Ci/mmole) and 0.4 mg/mL activated calf thymus DNA as substrates. Dilutions of compounds were added to the plate in 1% DMSO (1 μL/well). Assays were initiated by the addition of 0.025 to 0.06 units of enzyme (1 unit is the amount required to incorporate 250 pmoles of [^3H] dTMP in a standard assay), incubated for 10 min at 30° C. and terminated by the addition of 200 μL of cold 10% trichloroacetic acid, 10 mM sodium pyrophosphate. Precipitated labeled DNA was collected on glass fiber filter plates that had been pre-wet with ice cold 1 M HCl, 100 mM sodium pyrophosphate. The plates were washed with the HCl solution followed by ice cold 90% ethanol and then dried and counted in a liquid scintillation counter. The calculated IC50 is the concentration needed to inhibit 50% of the DNA polymerase activity in the presence of all four dNTP substrates. In addition, percent inhibition values are calculated as the percent reduction in the activity of a DMSO (diluent) control.

E. coli pol IIIE = target: T3, E. coli pol IIIE (Escherichia coli, UniProt P10443); assay: DNA polymerase assay, E. coli pol IIIE; type: biochemical; settings: 80 μg/mL (190-260 μM) final concentration; all four dNTPs
T3 construct: purchased Enzyco, Denver, Colo
T3 sequence (P10443 whole entry): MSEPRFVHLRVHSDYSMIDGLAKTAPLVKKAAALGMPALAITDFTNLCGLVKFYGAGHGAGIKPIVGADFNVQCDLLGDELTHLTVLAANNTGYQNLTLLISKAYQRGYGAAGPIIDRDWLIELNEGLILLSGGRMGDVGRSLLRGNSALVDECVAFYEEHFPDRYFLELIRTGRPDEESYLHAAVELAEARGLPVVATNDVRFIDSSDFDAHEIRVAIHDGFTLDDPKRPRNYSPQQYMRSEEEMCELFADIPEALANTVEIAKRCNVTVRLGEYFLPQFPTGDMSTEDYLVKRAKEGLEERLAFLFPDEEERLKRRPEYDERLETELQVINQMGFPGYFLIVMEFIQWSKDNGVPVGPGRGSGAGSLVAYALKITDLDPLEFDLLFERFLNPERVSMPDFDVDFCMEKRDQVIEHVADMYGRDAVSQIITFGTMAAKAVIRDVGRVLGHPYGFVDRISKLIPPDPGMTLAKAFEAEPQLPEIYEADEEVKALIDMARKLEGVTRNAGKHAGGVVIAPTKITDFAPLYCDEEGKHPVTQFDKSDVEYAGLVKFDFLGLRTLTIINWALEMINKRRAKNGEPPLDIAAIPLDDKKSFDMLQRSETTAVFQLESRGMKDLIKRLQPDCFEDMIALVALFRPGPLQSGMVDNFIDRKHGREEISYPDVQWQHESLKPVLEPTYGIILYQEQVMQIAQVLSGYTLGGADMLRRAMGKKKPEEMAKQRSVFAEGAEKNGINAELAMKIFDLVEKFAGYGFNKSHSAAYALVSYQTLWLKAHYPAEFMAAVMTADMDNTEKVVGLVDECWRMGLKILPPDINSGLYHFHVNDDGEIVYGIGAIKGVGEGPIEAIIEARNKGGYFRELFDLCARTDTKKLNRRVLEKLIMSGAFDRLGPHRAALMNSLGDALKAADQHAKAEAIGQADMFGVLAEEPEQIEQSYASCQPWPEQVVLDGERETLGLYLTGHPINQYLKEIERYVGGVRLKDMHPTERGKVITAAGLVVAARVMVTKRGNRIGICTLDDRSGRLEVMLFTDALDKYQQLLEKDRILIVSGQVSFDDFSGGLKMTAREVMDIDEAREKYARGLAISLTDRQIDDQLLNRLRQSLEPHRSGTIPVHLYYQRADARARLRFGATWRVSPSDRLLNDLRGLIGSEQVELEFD
Description: as §2

CCN1C(=O)C(=NNC(=O)c2cc(-c3cccc(-c4ccccc4)c3)n[nH]2)c2ccccc21 [Compound 21]
Minimum Inhibitory Concentration for Bacterial Growth, Bs [1]: >80 µg/mL
Minimum Inhibitory Concentration for Bacterial Growth, Sa [2]: >80 µg/mL
Minimum Inhibitory Concentration for Bacterial Growth, Sm (S. aureus Smith strain): >80 µg/mL
Minimum Inhibitory Concentration for Bacterial Growth, MRSA [3]: >80 µg/mL
Minimum Inhibitory Concentration for Bacterial Growth, Efcl [4]: >80 µg/mL
Minimum Inhibitory Concentration for Bacterial Growth, Efcm [5]: >80 µg/mL
Minimum Inhibitory Concentration for Bacterial Growth, VRE [6]: >80 µg/mL
Minimum Inhibitory Concentration for Bacterial Growth, Ec [7]: >80 µg/mL

COc1cccc(-c2cc(C(=O)NN=Cc3cccc(O)c3)[nH]n2)c1 [Compound 10]
Percent Enzymatic Inhibition B. subtilis pol IIIC (B. subtilis pol IIIC): Inactive
Percent Enzymatic Inhibition B. subtilis pol IIIE (B. subtilis pol IIIE): 9.6%
Percent Enzymatic Inhibition E. coli pol IIIE (E. coli pol IIIE): Inactive
Minimum Inhibitory Concentration for Bacterial Growth, Bs [1]: >80 µg/mL
Minimum Inhibitory Concentration for Bacterial Growth, Sa [2]: >80 µg/mL
Minimum Inhibitory Concentration for Bacterial Growth, Sm (S. aureus Smith strain): >80 µg/mL
Minimum Inhibitory Concentration for Bacterial Growth, MRSA [3]: >80 µg/mL
Minimum Inhibitory Concentration for Bacterial Growth, Efcl [4]: >80 µg/mL
Minimum Inhibitory Concentration for Bacterial Growth, Efcm [5]: >80 µg/mL
Minimum Inhibitory Concentration for Bacterial Growth, VRE [6]: >80 µg/mL
Minimum Inhibitory Concentration for Bacterial Growth, Ec [7]: >80 µg/mL

COc1ccc(-c2cc(C(=O)NN=Cc3ccccc3)[nH]n2)cc1 [Compound 13]
Percent Enzymatic Inhibition B. subtilis pol IIIC (B. subtilis pol IIIC): 2.9%
Percent Enzymatic Inhibition B. subtilis pol IIIE (B. subtilis pol IIIE): Inactive
Percent Enzymatic Inhibition E. coli pol IIIE (E. coli pol IIIE): 3.4%
Minimum Inhibitory Concentration for Bacterial Growth, Bs [1]: >80 µg/mL
Minimum Inhibitory Concentration for Bacterial Growth, Sa [2]: >80 µg/mL
Minimum Inhibitory Concentration for Bacterial Growth, Sm (S. aureus Smith strain): >80 µg/mL
Minimum Inhibitory Concentration for Bacterial Growth, MRSA [3]: >80 µg/mL
Minimum Inhibitory Concentration for Bacterial Growth, Efcl [4]: >80 µg/mL
Minimum Inhibitory Concentration for Bacterial Growth, Efcm [5]: >80 µg/mL
Minimum Inhibitory Concentration for Bacterial Growth, VRE [6]: >80 µg/mL
Minimum Inhibitory Concentration for Bacterial Growth, Ec [7]: >80 µg/mL

CCCCc1cc(C=NNC(=O)c2cc(-c3ccccc3)n[nH]2)cc(CCCC)c1O [Compound 12]
Percent Enzymatic Inhibition B. subtilis pol IIIC (B. subtilis pol IIIC): Inactive
Percent Enzymatic Inhibition B. subtilis pol IIIE (B. subtilis pol IIIE): 7.6%
Percent Enzymatic Inhibition E. coli pol IIIE (E. coli pol IIIE): 7.2%
Minimum Inhibitory Concentration for Bacterial Growth, Bs [1]: >80 µg/mL
Minimum Inhibitory Concentration for Bacterial Growth, Sa [2]: >80 µg/mL
Minimum Inhibitory Concentration for Bacterial Growth, Sm (S. aureus Smith strain): >80 µg/mL
Minimum Inhibitory Concentration for Bacterial Growth, MRSA [3]: >80 µg/mL
Minimum Inhibitory Concentration for Bacterial Growth, Efcl [4]: >80 µg/mL
Minimum Inhibitory Concentration for Bacterial Growth, Efcm [5]: >80 µg/mL
Minimum Inhibitory Concentration for Bacterial Growth, VRE [6]: >80 µg/mL
Minimum Inhibitory Concentration for Bacterial Growth, Ec [7]: >80 µg/mL

O=C(NN=Cc1ccccc1O)c1cc(-c2ccccc2)n[nH]1 [Compound 9]
Minimum Inhibitory Concentration for Bacterial Growth, Bs [1]: >80 µg/mL
Minimum Inhibitory Concentration for Bacterial Growth, Sa [2]: >80 µg/mL
Minimum Inhibitory Concentration for Bacterial Growth, Sm (S. aureus Smith strain): >80 µg/mL
Minimum Inhibitory Concentration for Bacterial Growth, MRSA [3]: >80 µg/mL
Minimum Inhibitory Concentration for Bacterial Growth, Efcl [4]: >80 µg/mL
Minimum Inhibitory Concentration for Bacterial Growth, Efcm [5]: >80 µg/mL
Minimum Inhibitory Concentration for Bacterial Growth, VRE [6]: >80 µg/mL
Minimum Inhibitory Concentration for Bacterial Growth, Ec [7]: >80 µg/mL

COc1ccc(C=NNC(=O)c2cc(-c3ccc(Cl)cc3)n[nH]2)cc1OC [Compound 15]
Percent Enzymatic Inhibition B. subtilis pol IIIC (B. subtilis pol IIIC): Inactive
Percent Enzymatic Inhibition B. subtilis pol IIIE (B. subtilis pol IIIE): 13.7%
Percent Enzymatic Inhibition E. coli pol IIIE (E. coli pol IIIE): Inactive
Minimum Inhibitory Concentration for Bacterial Growth, Bs [1]: >80 µg/mL
Minimum Inhibitory Concentration for Bacterial Growth, Sa [2]: 8 µg/mL
Minimum Inhibitory Concentration for Bacterial Growth, Sm (S. aureus Smith strain): >80 µg/mL
Minimum Inhibitory Concentration for Bacterial Growth, MRSA [3]: >80 µg/mL
Minimum Inhibitory Concentration for Bacterial Growth, Efcl [4]: >80 µg/mL
Minimum Inhibitory Concentration for Bacterial Growth, Efcm [5]: 40 µg/mL
Minimum Inhibitory Concentration for Bacterial Growth, VRE [6]: >80 µg/mL
Minimum Inhibitory Concentration for Bacterial Growth, Ec [7]: >80 µg/mL

COc1cccc(-c2cc(C(=O)NN=Cc3ccc(O)cc3)[nH]n2)c1 [Compound 14]
Percent Enzymatic Inhibition B. subtilis pol IIIC (B. subtilis pol IIIC): 0.5%
Percent Enzymatic Inhibition B. subtilis pol IIIE (B. subtilis pol IIIE): 18.1%
Percent Enzymatic Inhibition E. coli pol IIIE (E. coli pol IIIE): Inactive
Minimum Inhibitory Concentration for Bacterial Growth, Bs [1]: >80 µg/mL
Minimum Inhibitory Concentration for Bacterial Growth, Sa [2]: 80 µg/mL
Minimum Inhibitory Concentration for Bacterial Growth, Sm (S. aureus Smith strain): 80 µg/mL
Minimum Inhibitory Concentration for Bacterial Growth, MRSA [3]: 80 µg/mL
Minimum Inhibitory Concentration for Bacterial Growth, Efcl [4]: >80 µg/mL
Minimum Inhibitory Concentration for Bacterial Growth, Efcm [5]: >80 µg/mL
Minimum Inhibitory Concentration for Bacterial Growth, VRE [6]: 80 µg/mL
Minimum Inhibitory Concentration for Bacterial Growth, Ec [7]: >80 µg/mL

COc1cccc(C=NNC(=O)c2cc(-c3ccc(C)cc3)n[nH]2)c1O [Compound 8]
Percent Enzymatic Inhibition B. subtilis pol IIIC (B. subtilis pol IIIC): 19.7%
Minimum Inhibitory Concentration for Bacterial Growth, Bs [1]: >80 µg/mL
Minimum Inhibitory Concentration for Bacterial Growth, Sa [2]: >80 µg/mL
Minimum Inhibitory Concentration for Bacterial Growth, Sm (S. aureus Smith strain): >80 µg/mL
Minimum Inhibitory Concentration for Bacterial Growth, MRSA [3]: >80 µg/mL
Minimum Inhibitory Concentration for Bacterial Growth, Efcl [4]: >80 µg/mL
Minimum Inhibitory Concentration for Bacterial Growth, Efcm [5]: >80 µg/mL
Minimum Inhibitory Concentration for Bacterial Growth, VRE [6]: >80 µg/mL
Minimum Inhibitory Concentration for Bacterial Growth, Ec [7]: >80 µg/mL

Cc1ccc(C=NNC(=O)c2cc(-c3ccccc3)n[nH]2)cc1 [Compound 11]
Percent Enzymatic Inhibition B. subtilis pol IIIC (B. subtilis pol IIIC): 1.3%
Percent Enzymatic Inhibition B. subtilis pol IIIE (B. subtilis pol IIIE): 16.7%
Percent Enzymatic Inhibition E. coli pol IIIE (E. coli pol IIIE): Inactive
Minimum Inhibitory Concentration for Bacterial Growth, Bs [1]: >80 µg/mL
Minimum Inhibitory Concentration for Bacterial Growth, Sa [2]: >80 µg/mL
Minimum Inhibitory Concentration for Bacterial Growth, Sm (S. aureus Smith strain): >80 µg/mL
Minimum Inhibitory Concentration for Bacterial Growth, MRSA [3]: >80 µg/mL
Minimum Inhibitory Concentration for Bacterial Growth, Efcl [4]: >80 µg/mL
Minimum Inhibitory Concentration for Bacterial Growth, Efcm [5]: >80 µg/mL
Minimum Inhibitory Concentration for Bacterial Growth, VRE [6]: >80 µg/mL
Minimum Inhibitory Concentration for Bacterial Growth, Ec [7]: >80 µg/mL

CCN1C(=O)C(=NNC(=O)c2cc(-c3ccccc3)n[nH]2)c2ccccc21 [Compound 20]
Percent Enzymatic Inhibition B. subtilis pol IIIC (B. subtilis pol IIIC): 0.2%
Percent Enzymatic Inhibition B. subtilis pol IIIE (B. subtilis pol IIIE): 0.5%
Percent Enzymatic Inhibition E. coli pol IIIE (E. coli pol IIIE): Inactive
